In article PMC10449632, “Structural basis for translation inhibition by the glycosylated drosocin peptide” (Nature Chemical Biology, 2023):
No end group written: not given here. *: point of attachment. αGalNAc = CC(=O)N[C@@H]1[C@@H](O)[C@@H](O)[C@@H](CO)O[C@@H]1*

Assays:
[1] = tested on: E. coli Keio wt (BW25113); experiment: Antibiotic susceptibility (growth) assay, E. coli Keio wild-type; assay type: cell-based, Escherichia coli; conditions: 30 μM peptide; for Average of normalized growth: average of three biological replicates; for growth inhibition in rich medium: rich (LB) medium
Description: Many PrAMPs use the SbmA transporter to pass through the E. coli inner membrane[4],[10],[31]; however, whether drosocin also uses SbmA remains, to our knowledge, unknown. To address this, we monitored the effect of the presence of diverse drosocin peptides (Fig. 1a,b and Supplementary Fig. 1a) on the growth of the wild-type E. coli strain BW25113 containing SbmA or lacking SbmA (ΔsbmA) (Fig. 1c,d). We compared unmodified drosocin (Dro) with various modified forms (Fig. 1a,b). The modified forms included the naturally occurring Dro1 and Dro2 that carry either a monosaccharide (α-D-GalNAc) or disaccharide (β-D-Gal(1→3)-α-D-GalNAc) attached to Thr11, respectively (Fig. 1b). In addition, we examined the previously reported[23],[24] drosocin derivatives bearing β-D-Maltosyl (Dro3), α-D-GlcNAc (Dro4), β-D-Gal (Dro5), β-D-Glc (Dro6), β-D-Lactosyl (Dro7) and β-D-Cellobiosyl (Dro8) modifications on Thr11 (Fig. 1a,b and Supplementary Fig. 1a). Finally, we also included in our analysis the synthetic unmodified drosocin derivative with proline substitutions at positions 7, 11 and 12 (Dro-3P) (Fig. 1a), which was previously reported to have similar antimicrobial activity to the monosaccharide form of drosocin[25]. Growth was monitored in both rich (LB) and minimal medium in the presence of 30 μM of each peptide and normalized with the growth in the absence of the compounds (Methods). […] We also observed no inhibition for Dro2 nor for any of the β-linked disaccharides (Dro3, Dro6 or Dro7). […] By contrast, all drosocin peptides inhibited growth of the E. coli BW25113 strain in minimal medium, albeit to different extents (Fig. 1d).
(§1) Strains E. coli Keio wild-type and E. coli Keio ΔsbmA used from the Keio knockout collection (Horizon, https://horizondiscovery.com). Wild-type E. coli SQ110 (ΔrrnGADBHC(ptRNA67))[47] and SQ171 (ΔrrnGADEHBC(pKK3535, ptRNA67))[47] strains and related mutants E. coli SQ110 A2059G and E. coli SQ171 A2503G were obtained from the previous Api137 study. E. coli strains SQ171 bearing A752G, U2609C and A752G:U2609C mutations[43] and E. coli SQ171 U2609G[48] were generated previously.
(§2) The susceptibility of E. coli strains to compounds was evaluated by monitoring the bacterial growth in presence of increasing concentrations of the compound of interest. In brief, bacteria were inoculated in a total volume of 100 μl of medium contained in a well of a 96-well microplate (round bottom, with cap, sterile; Sarstedt). The medium used was either LB, as rich medium, or ATCC medium (778 Davis and Mingioli glucose minimal medium), as minimal medium. Before inoculation, bacteria were grown up to exponential phase and then inoculated into the culture mix, containing selective antibiotic if necessary, with an initial optical density at 600 nm (OD600) of 0.05. Values measured from wells containing just the medium were used as a blank. The growth in each well was monitored by measuring the OD600 every 10 minutes for a total of 20 hours at 37 °C with shaking using a plate reader (Tecan Infinite 200 PRO). The inhibition resulting from a compound’s concentration was evaluated by normalizing the OD600 at t = 12 hours (corresponding to the end of the log phase) from the treated culture to the untreated one. For each compound, the concentrations tested were 5 μM, 10 μM and 30 μM. Each single titration assay was done in triplicate with individually prepared culture mixes. For each concentration, the standard deviation was calculated, taking into account each single replica and its specific technical error from the plate reader.

E. coli SQ171 A752G = experiment: Antibiotic susceptibility (growth) assay, E. coli SQ171 A752G; assay type: cell-based, Escherichia coli; conditions: relative to no compound, mean of 3 replicas
Description: (§3) In addition, we also used a strain with a U2609C–A752G double mutation, which would be predicted to restore Watson–Crick base pairing, and with three hydrogen bonds could possibly make breaking the base pair harder than with the canonical two hydrogen bonds for the A–U base pair. As a control, we also tested Dro that lacks the α-D-GalNAc modification, which we predict (assuming that Dro binds analogously to Dro1) should not interact with U2609 and, therefore, not be influenced by the conformation of the U2609–A752 base pair.
as §1, §2

E. coli SQ171 U2609G = experiment: Antibiotic susceptibility (growth) assay, E. coli SQ171 U2609G; assay type: cell-based, Escherichia coli; conditions: relative to no compound, mean of 3 replicas
Description: as §3, §1, §2

[2] = tested on: in vitro translation, E. coli PURExpress system, firefly luciferase (Fluc) mRNA; experiment: In vitro translation assay with Fluc reporter; assay type: biochemical, Escherichia coli; conditions: Fluc mRNA, luminescence; for maximum inhibition of in vitro translation: at the highest concentration tested of 150 μM
Experimental: To investigate this, we compared the effect of increasing concentrations (0–150 μM) of modified Dro1 and Dro2 with unmodified Dro, Dro-3P and Api137 using a cell-free in vitro translation system and firefly luciferase (Fluc) mRNA as a template (Fig. 1e), as we have used previously for assessing the activity of other PrAMPs[4],[6],[8],[9],[32],[33].
The in vitro translation assay was carried out as described previously[4],[8] using the E. coli PURExpress system (New England Biolabs (NEB), E6800S). Then, 1 µl of antibiotic solution was added to 5 µl of PURExpress reaction mix. Each reaction contained 10 ng μl^−1 of mRNA encoding the Fluc, which was in vitro transcribed from a pIVEX-2.3MCS vector containing the Fluc gene using T7 polymerase (Thermo Fisher Scientific). The reaction mix was incubated for 30 minutes at 32 °C while shaking (600 r.p.m.). Reactions were stopped with 5 µl of kanamycin (50 mg ml^−1) and transferred into a 96-well microplate (Greiner Lumitrac, non-binding, white, chimney). Next, 40 µl of luciferase assay substrate solution (Promega, E1501) was added, and luminescence was measured using a plate reader (Tecan Infinite 200 PRO). Nuclease-free water was added instead of antibiotic as control. Absolute luminescence values were normalized using reactions without antibiotic. All assays were done as triplicates with individually prepared reaction mix.

Substance: Dro1: naturally occurring drosocin carrying monosaccharide α-D-GalNAc attached to Thr11 (GKPRPYSPRPT(αGalNAc)SHPRPIRV; UniProt P36193 22-40, looked up)
- Average of normalized growth ([1]; LB rich medium): 38%
- Average of normalized growth ([1]; Minimal medium): 6%
- growth inhibition in minimal medium [1]: highest inhibition
- growth inhibition in rich medium [1]: growth inhibition
- OD600 at t = 12 h, Normalized, Average (E. coli SQ171 A752G; 5 μM): 70%
- OD600 at t = 12 h, Normalized, Average (E. coli SQ171 A752G; 30 μM): 7%
- OD600 at t = 12 h, Normalized, Average (E. coli SQ171 U2609G; 5 μM): 50%
- OD600 at t = 12 h, Normalized, Average (E. coli SQ171 U2609G; 30 μM): 8%
- IC50 ([2]; 0–150 μM peptide, 30 minutes at 32 °C, triplicate, read-out: half maximal inhibitory concentration (IC50), in vitro translation): 78 ± 13 µM
- maximum inhibition of in vitro translation [2]: 60%

Substance: Dro: unmodified drosocin, 19 amino acid proline-rich antimicrobial peptide lacking O-glycosylation (GKPRPYSPRPTSHPRPIRV; Drosocin; UniProt P36193 22-40, looked up)
- Average of normalized growth ([1]; LB rich medium): 98%
- Average of normalized growth ([1]; Minimal medium): 87%
- growth inhibition in minimal medium [1]: lowest
- growth inhibition in rich medium [1]: inactive
- OD600 at t = 12 h, Normalized, Average (E. coli SQ171 A752G; 5 μM): 84%
- OD600 at t = 12 h, Normalized, Average (E. coli SQ171 A752G; 30 μM): 59%
- OD600 at t = 12 h, Normalized, Average (E. coli SQ171 U2609G; 5 μM): 87%
- OD600 at t = 12 h, Normalized, Average (E. coli SQ171 U2609G; 30 μM): 59%
- maximum inhibition of in vitro translation [2]: 20%
